In patent US20260169011A1, “METHODS AND COMPOSITIONS FOR PROVIDING CUSTOMIZED NUTRITIONAL SUPPLEMENTS” (Vibrant Holdings LLC, priority 2023, published 2026):
Where two headings read alike, the source gives them in different places. Each block holds one compound with its values, some of them ahead of it.

Legend:
[1] = cited from earlier work
[2] = Vibrant Absorption Factor (VAF): difference of post- and pre-supplementation nutrient values divided by ATB dosage
[3] = NutriPro test: serum, RBC and WBC nutrient values before and after ATB / customized blend; type: in vivo, human; conditions: for Follow-up Biomarker level / Follow-up Nutrient Level: after customized blend; for Pre-test biomarker level: before ATB; for Follow-up Nutrient Level / Actual Nutrient Value (ANV): person three; for Actual Nutrient Value (ANV): before customized blend
Excerpt: The method for providing a nutritional supplement for a subject as disclosed herein is based on a comprehensive panel that assesses intracellular and extracellular levels of at least or up to 41 nutrients. […] Blood analysis using the method disclosed herein tests for nutrient levels in serum, red blood cells (RBCs), and white blood cells (WBCs). Additional genetic testing can assess patients' predispositions toward nutrient deficiencies. Based on the blood and genetic analysis results, a subsequent supplementation diet comprising supplements and food sources can be designed and implemented. The subject can be a human subject.
In some embodiments, the detection method is mass spectrometry.
The ‘NutriPro’ test is used to assess serum (extracellular), RBC, and WBC (intracellular) nutrient values along with genetic testing for any predispositions with could be affecting nutrient values in the body. If required, additional tests such as the gut zoomer, cardiovascular health, thyroid test, kidney function test, liver function test, etc, are carried out. FIG. 1 provides a schematic diagram of the process of the NutriPro test from the individual subject to the creation of customized nutritional blends.
The ATB is given to the individual for nutritional supplementation, and blood testing for nutrients in serum, RBC, and WBC is carried out after 3 or 6 months.
The assessed change is called the VAF.
After testing, the individual takes the ATB or the customized blend for the amount of time indicated.

[4] = Extracellular (serum) nutrient levels by mass spectrometry (LC-MS, GC-MS, ICP-MS); conditions: Level: Serum, person
Excerpt: In some embodiments, the detection method assesses nutrients both in extracellular plasma and intracellular in RBC and WBC. In some embodiments, the detection method is mass spectroscopy-based. The extracellular and intracellular nutrient levels provide a comprehensive analysis of a subject's nutrient status, reflecting not only the intake levels but also the absorption levels into the cells.
In some aspects, the extracellular nutrient levels provide a snapshot of the status of nutrient baseline levels at a given time. It is a reflection of a person's diet over a narrow period of time. In contrast, the intracellular levels of nutrients provide information on the absorbed levels of nutrients, thus accounting for factors such as aging, lifestyle, chronic illness, medication, etc. that could interfere with absorption and can change the functional nutritional levels.
In some embodiments, the detection method is mass spectrometry. In some embodiments, the detection method is Liquid chromatography-mass spectrometry (LC-MS), Gas chromatography-mass spectrometry (GC-MS), or Inductively coupled plasma-mass-spectrometry (ICP-MS). In some embodiments, the detection method is Liquid chromatography-mass spectrometry (LC-MS). In some embodiments, the detection method is Gas chromatography-mass spectrometry (GC-MS). In some embodiments, the detection method is Inductively coupled plasma-mass-spectrometry (ICP-MS).
In some embodiments, the method provided herein evaluates nutrient levels, both in extracellular serum and inside (intracellular) red blood cells (RBC) and/or white blood cells (WBC). The extracellular nutrient levels provide a snapshot of the status of nutrient baseline levels at a given time. These extracellular nutrient levels are a reflection of a person's diet over a narrow period of time. In contrast, RBCs have a normal lifespan of 120 days, and thus intracellular assessments for nutrients in RBCs can provide information on nutrients over longer periods. Additionally, the intracellular levels of nutrients provide information on the absorbed levels of nutrients, thus accounting for factors such as, but not limited to, aging, lifestyle, chronic illness, and medication, that can interfere with absorption and can change the functional nutritional levels. Moreover, actual nutrient utilization occurs inside the cell owing to cellular metabolic processes. At times, nutrients could be present in serum, but poor cellular uptake may result in cells being devoid of these nutrients, thus giving rise to nutrient deficiencies owing to affected cellular activities. […] As a result, it is important to assess nutrients intracellularly in addition to extracellularly. Thus, the intracellular assessment provides information on cellular uptake and utilization of nutrients at the most fundamental level, enabling understanding of the root cause of nutrient deficiencies.
The subject individual fills out the health questionnaire (PHQ) which helps establishes factors such as symptoms, complications, comorbidities, and ongoing medications. The subject's blood is drawn and the extracellular serum and intracellular blood cells are tested for nutritional deficiencies via mass spectroscopy (e.g., Liquid chromatography-mass spectrometry (LC-MS), Gas chromatography-mass spectrometry (GC-MS), or Inductively coupled plasma-mass-spectrometry (ICP-MS)).

[5] = person two, level: Questionnaire
[6] = person one, cells, unit not given

Compound: [Mn] [Manganese, Mn 55]
UTL ([1]; upper tolerable limit): 11 mg/day

Compound: [Mn+2] [Manganese]
VAF ([2]; person two, cells): 7.684
VAF ([2]; person two, serum): 0.2316
Post-test biomarker level ([3]; person two, cells, after ATB): 7.8 pg/MM WBC
Follow-up Biomarker level ([3]; person two, cells): 67.5 pg/MM WBC
Pre-test biomarker level ([3]; person two, cells): 0.5 pg/MM WBC
Post-test biomarker level ([3]; person two, serum, after ATB): 0.62 ng/mL
Follow-up Biomarker level ([3]; person two, serum): 2.1 ng/mL
Pre-test biomarker level ([3]; person two, serum): 0.4 ng/mL
UTL ([1]; Table 19, person two): 11 mg/day

VAF ([2]; person two, serum): 0.55
Post-test biomarker level ([3]; female, human, in vivo): 12.9 nmol/mL
Follow-up Biomarker level ([3]; person two, serum): 47.5 nmol/mL
Pre-test biomarker level ([3]; person two, serum): 7.4 nmol/mL
Compound: O[C@H]1[C@H](O)[C@@H](O)[C@H](O)[C@@H](O)[C@H]1O [Myo-Inositol]

Compound: [K+] [Potassium]
Follow-up Nutrient Level ([4]; after customized blend): 3.4 mmol/L
Actual Nutrient Value (ANV) ([4]; before customized blend): 2.8 mmol/L

Compound: [76Se] [Selenium, Se 76]
UTL ([1]; upper tolerable limit): 0.4 mg/day

Compound: N[C@@H](CO)C(=O)O [Serine]
Follow-up Nutrient Level ([3]; serum): 131 nmol/mL
Actual Nutrient Value (ANV) ([3]; serum): 62 nmol/mL
UTL ([1]; Table 20, person three): 12000 mg/day

Compound: [Na] [Sodium]
UTL ([1]; upper tolerable limit): 2,300 mg/day

Compound: CC(C)[C@H](N)C(=O)O [Valine]
Follow-up Nutrient Level ([3]; serum): 332 nmol/mL
Actual Nutrient Value (ANV) ([3]; serum): 26 nmol/mL

Compound: CC1=C(/C=C/C(C)=C/C=C/C(C)=C/CO)C(C)(C)CCC1 [Vitamin A (Retinol)]
UTL ([1]; upper tolerable limit): 10,000 IU/day

Compound: Cc1cc2nc3c(=O)[nH]c(=O)nc-3n(C[C@H](O)[C@H](O)[C@H](O)CO)c2cc1C [Vitamin B2]
Follow-up Nutrient Level ([3]; serum): 231 µg/L
Actual Nutrient Value (ANV) ([3]; serum): 5.5 µg/L

Compound: O=C(O)c1cccnc1 [Vitamin B3]
VAF ([2]; person one, serum): 0.7
Post-test biomarker level ([3]; person one, serum, after ATB): 3.9 ng/mL
Follow-up Biomarker level ([3]; person one, serum): 70.1 ng/mL
Pre-test biomarker level ([3]; person one, serum): 1.1 ng/mL
UTL ([1]; Table 18, person one): 35 mg/day

Compound: O=C1O[C@H]([C@@H](O)CO)C(O)=C1O [Vitamin C (L-Ascorbic acid)]
UTL ([1]; upper tolerable limit): 2000 mg/day

Compound: Cc1c(C)c2c(c(C)c1O)CC[C@@](C)(CCC[C@H](C)CCC[C@H](C)CCCC(C)C)O2 [Vitamin E (alpha-tocopherol)]
UTL ([1]; upper tolerable limit): 1,100 IU/day

Compound: CC1=C(C/C=C(\C)CCC[C@H](C)CCC[C@H](C)CCCC(C)C)C(=O)c2ccccc2C1=O [Vitamin K1]
VAF ([2]; person two, serum): 0.081
Follow-up Nutrient Level ([3]; serum): 12.3 µg/L
Actual Nutrient Value (ANV) ([3]; serum): 0.07 µg/L
Post-test biomarker level ([3]; person two, serum, after ATB): 1.7 ng/mL
Follow-up Biomarker level ([3]; person two, serum): 12.4 ng/mL
Pre-test biomarker level ([3]; person two, serum): 0.08 ng/mL

Compound: [Zn] [Zinc, Zn 67]
UTL ([1]; upper tolerable limit): 40 mg/day

Compound: [Zn] [Zinc]
VAF ([2]; person one, cells): 1.333
VAF [2, 5]: 0.2333
Post-test biomarker level ([3]; person one, cells, after ATB): 4.8 ng/MM WBC
Follow-up Biomarker level ([3]; person one, cells): 14.1 ng/MM WBC
Pre-test biomarker level ([3]; person one, cells): 2.8 ng/MM WBC
Follow-up Nutrient Level ([3]; serum): 1550 µg/L
Actual Nutrient Value (ANV) ([3]; serum): 500 µg/L
Post-test biomarker level ([3]; person two, level: Questionnaire, after ATB): 1100 ng/mL
Follow-up Biomarker level [3, 5]: 1470 ng/mL
Pre-test biomarker level [3, 5]: 750 ng/mL
UTL ([1]; Table 18, person one): 40 mg/day
UTL ([1]; Table 19, person two): 40 mg/day
UTL ([1]; Table 20, person three): 40 mg/day

VAF ([2]; person two, cells): 0.0019
VAF ([2]; person two, serum): 0.025
Follow-up Nutrient Level ([3]; cells): 14.4 pg/MM WBC
Actual Nutrient Value (ANV) ([3]; cells): 0.4 pg/MM WBC
Follow-up Nutrient Level ([3]; serum): 1280 µg/L
Actual Nutrient Value (ANV) ([3]; serum): 350 µg/L
Post-test biomarker level ([3]; person two, cells, after ATB): 2.1 pg/MM WBC
Follow-up Biomarker level ([3]; person two, cells): 14.5 pg/MM WBC
Pre-test biomarker level ([3]; person two, cells): 0.2 pg/MM WBC
Post-test biomarker level ([3]; person two, serum, after ATB): 470 ng/mL
Follow-up Biomarker level ([3]; person two, serum): 1290 ng/mL
Pre-test biomarker level ([3]; person two, serum): 220 ng/mL
Compound: Vitamin A
UTL ([1]; Table 19, person two): 10,000 IU/day
UTL ([1]; Table 20, person three): 10,000 IU/day

VAF ([2]; person one, cells): 3.75
VAF ([2]; person one, serum): 250
VAF ([2]; person two, serum): 132.5
Post-test biomarker level ([3]; person one, cells, after ATB, unit not given): 1.7
Follow-up Biomarker level [3, 6]: 10.3
Pre-test biomarker level [3, 6]: 0.2
Post-test biomarker level ([3]; person one, serum, after ATB): 0.205 ng/mL
Follow-up Biomarker level ([3]; person one, serum): 1.17 ng/mL
Pre-test biomarker level ([3]; person one, serum): 0.105 ng/mL
Post-test biomarker level ([3]; person two, serum, after ATB): 0.147 ng/mL
Follow-up Biomarker level ([3]; person two, serum): 1.122 ng/mL
Pre-test biomarker level ([3]; person two, serum): 0.094 ng/mL
Compound: Vitamin B12

VAF ([2]; person one, serum): 0.0007
Post-test biomarker level ([3]; person one, serum, after ATB): 0.017 ng/mL
Follow-up Biomarker level ([3]; person one, serum): 0.1017 ng/mL
Pre-test biomarker level ([3]; person one, serum): 0.01 ng/mL
Compound: Vitamin K2
